Results taken from US20240099214A1, “PLANT DEFENCE GENE EXPRESSION” (UPL Corporation Limited, priority 2021, published 2024).

Columns and labels:
[1] = tested on: PR protein (gene 12, M69248.1); experiment: qRT-PCR expression of gene 12 in tomato leaves; assay type: in vivo, Tomato ecotype corbarino; parameters: key to RQ1 / RQ2 / RQ3 / RQ mean: relative expression normalized to a-tubulin housekeeping gene; conditions: for gene 12 (PR1 protein) expression: laminarin treatment group not specified
Description: (§1) Tomato ecotype “corbarino” reported to be susceptible to TSWV infection was used in the experiment. Plants were grown in pots in a climatic chamber with a photoperiod of 16/8 hour at 25° C.
(§2) The viral strain (TSWV PV PV-0393) was utilized in the experiment. The virus was mechanically inoculated and propagated on tomato “corbarino”. The inoculum was prepared in an ice-cooled mortar grounding 1 gr of infected tomato tissue in 10 ml of Na-phosphate buffer 0.01M. The fresh prepared inoculum was stored in ice before use. Tomato plants at BBCH16 were dusted with Carborundum 600 mesh and selected leaves were rubbed with some droplets of inoculum. After 5 min. plants were sprayed with sterile water to remove the excess of inoculum and preserve the cell turgor.
(§3) Four treatments were compared: i) Mock inoculated; ii) TSWV; iii) 0.25% Laminarin; iv) 0.25% Laminarin+TSWV. In the last treatment the virus was inoculated 24 hrs after the laminarin application.
(§4) Total RNA was extracted from systemic infected tomato leaves by using the Quick-RNA Plant Kit (Zymo Research) following the manufacturer instructions. The extractions were carried out using three plants after 12 h, 24 h, 48 h, 72 h, 7 days after inoculation. Leaves were instantly frozen in liquid nitrogen after cutting to avoid any deterioration of the sample as well as any defense reaction. The RNA concentration was quantified by measuring the absorbance at 260 nm using a Nanodrop 2000 (Thermofisher). The purity of all of the RNA samples was assessed at an absorbance ratio of OD260/280 and OD260/230, while its structural integrity was checked by agarose gel electrophoresis. Only high-quality RNA with OD 260/280 and OD 260/230>2 was used for subsequent steps. Single-stranded cDNA was synthesized from 1 μg of total RNA using an iScript™ Select cDNA Synthesis Kit and random hexamers as primers (Bio-Rad, Milan, Italy), according to the manufacturer's instructions. Three biological replicates were created from the 3 leaves collected to test 15 genes. Alpha tubulin was used as reference gene.
(§5) qPCR reactions were performed with BioRad (Applied Biosystems, Foster City, CA, USA) using SYBR R Green. Each reaction was performed in 20 μl containing 10 μl of 2× Power SYBR Green PCR Master Mix (Life Technologies), 0.2-0.3 μM primers and cDNA samples diluted 1:20. Each qPCR reaction was performed in triplicate. Reactions were run using the cycling parameter described previously (Reid et al., 2006) and the qPCR data were analyzed by the Ct method (Pfaffl, 2001). In order to analyze the qPCR data, a-tubulin gene was used as housekeeping to determine the relative expression level of the other genes analyzed in this work. For the determination of qPCR efficiency of each primer pairs, a standard curve was performed using the following cDNA dilutions: 1:4, 1:16, 1:64; 1:256 and 1:1024. Every measurement was made in triplicate. The corresponding qPCR efficiencies (E) were calculated for every primer pair with the software 7300 System SDS software (Applied Biosystems, Foster City, CA, USA) according to the equation E=(10−1/slope−1)×100 (Rutledge and Stewart, 2008).
(§6) The significance of the differences between the gene expressions levels were compared by one-way ANOVA (p=0.01) and the means were separated by Tukey post-hoc test using SPSS ver.26 ([…]).

[2] = tested on: Nbs-Irr resistance protein (gene 3, Solyc05g009760.1); experiment: qRT-PCR expression of gene 3 in tomato leaves; assay type: in vivo, Tomato ecotype corbarino; parameters: key: relative expression normalized to a-tubulin housekeeping gene
Description: as §1, §2, §3, §4, §5, §6

[3] = Gene_12, 24 hr, treatment Laminarin
[4] = Gene_12, 24 hr, treatment Laminarin + virus
[5] = Gene_12, 48 hr, treatment Laminarin
[6] = Gene_12, 48 hr, treatment Laminarin + virus
[7] = Gene_12, 72 hr, treatment Laminarin
[8] = Gene_12, 72 hr, treatment Laminarin + virus

Substance: laminarin
- RQ1 ([1]; 12 hr, Laminarin + virus): 10.097
- RQ2 ([1]; 12 hr, Laminarin + virus): 0.9948
- RQ3 ([1]; 12 hr, Laminarin + virus): 11.722
- RQ mean ([1]; 12 hr, Laminarin + virus): 10.589
- RQ1 ([1]; 12 hr, Laminarin alone): 0.9616
- RQ2 ([1]; 12 hr, Laminarin alone): 11.039
- RQ3 ([1]; 12 hr, Laminarin alone): 10.693
- RQ mean ([1]; 12 hr, Laminarin alone): 10.449
- gene 12 (PR1 protein) expression ([1]; 48 hr post treatment, not statistically significant): highly overexpressed
- gene 12 (PR1 protein) expression ([1]; 72 hr, statistically significant): overexpression of gene 12 is slightly reduced
- activation of systemic acquired resistance (SAR), inferred from gene 12 overexpression ([1]; 72 hr, tomato): activate the SAR
- RQ1 [1, 3]: 11.678
- RQ2 [1, 3]: 11.217
- RQ3 [1, 3]: 10.555
- RQ mean [1, 3]: 11.150
- RQ1 [1, 4]: 0.9321
- RQ2 [1, 4]: 11.344
- RQ3 [1, 4]: 11.191
- RQ mean [1, 4]: 10.619
- RQ1 [1, 5]: 46.753
- RQ3 [1, 5]: 31.171
- RQ mean [1, 5]: 60.670
- RQ1 [1, 6]: 42.751
- RQ2 [1, 6]: 56.022
- RQ3 [1, 6]: 37.918
- RQ mean [1, 6]: 45.564
- RQ1 [1, 7]: 44.543
- RQ2 [1, 7]: 23.924
- RQ3 [1, 7]: 31.675
- RQ mean [1, 7]: 33.381
- RQ1 [1, 8]: 36.333
- RQ2 [1, 8]: 29.356
- RQ3 [1, 8]: 21.584
- RQ mean [1, 8]: 29.091
- RQ1 ([2]; 12 hr, Laminarin + virus): 11.935
- RQ2 ([2]; 12 hr, Laminarin + virus): 12.286
- RQ3 ([2]; 12 hr, Laminarin + virus): 0.9487
- RQ mean ([2]; 12 hr, Laminarin + virus): 11.236
- RQ1 ([2]; 12 hr, Laminarin alone): 10.545
- RQ2 ([2]; 12 hr, Laminarin alone): 10.498
- RQ3 ([2]; 12 hr, Laminarin alone): 0.8329
- RQ mean ([2]; 12 hr, Laminarin alone): 0.9791
- RQ1 ([2]; 24 hr, Laminarin + virus): 11.167
- RQ2 ([2]; 24 hr, Laminarin + virus): 10.509
- RQ3 ([2]; 24 hr, Laminarin + virus): 13.936
- RQ mean ([2]; 24 hr, Laminarin + virus): 11.871
- RQ1 ([2]; 24 hr, Laminarin alone): 12.229
- RQ2 ([2]; 24 hr, Laminarin alone): 13.976
- RQ3 ([2]; 24 hr, Laminarin alone): 11.514
- RQ mean ([2]; 24 hr, Laminarin alone): 12.573
- RQ1 ([2]; 48 hr, Laminarin + virus): 12.976
- RQ2 ([2]; 48 hr, Laminarin + virus): 26.960
- RQ3 ([2]; 48 hr, Laminarin + virus): 15.208
- RQ mean ([2]; 48 hr, Laminarin + virus): 18.381
- RQ1 ([2]; 48 hr, Laminarin alone): 27.419
- RQ2 ([2]; 48 hr, Laminarin alone): 26.255
- RQ3 ([2]; 48 hr, Laminarin alone): 14.098
- RQ mean ([2]; 48 hr, Laminarin alone): 22.591
- RQ1 ([2]; 72 hr, Laminarin + virus): 47.747
- RQ2 ([2]; 72 hr, Laminarin + virus): 48.776
- RQ3 ([2]; 72 hr, Laminarin + virus): 16.860
- RQ mean ([2]; 72 hr, Laminarin + virus): 37.794
- RQ1 ([2]; 72 hr, Laminarin alone): 19.725
- RQ2 ([2]; 72 hr, Laminarin alone): 58.615
- RQ3 ([2]; 72 hr, Laminarin alone): 21.699
- RQ mean ([2]; 72 hr, Laminarin alone): 33.346
